Tested on: patients with treatment-resistant major depressive disorder
Experiment: Clinical trial in treatment-resistant major depressive disorder: intensity of the psychedelic effects (MEQ30, ASC, PPEQ)
Format: in vivo, human
Details: for ASC Oceanic Boundlessness (0-2700) / MEQ30 Ineffability (0 to 5) / MEQ30 Mystical (0 to 5) / MEQ30 Positive Mood (0 to 5) / MEQ30 Total Score Average (0 to 5) / MEQ30 Transcendence Time/Space (0 to 5) / PPEQ Intensity (0-100) / PPEQ Loss of Control (0-100) / PPEQ Profoundness (0-100) / PPEQ Total Score (0-100) / PPEQ PPE achieved / MEQ30 PPE achieved / ASC PPE achieved: 12 mg inhaled; for PPEQ PPE achieved: PPEQ Total Score of at least 75; for MEQ30 PPE achieved: at least 60% of the maximum possible score in each of the four subscales; for ASC PPE achieved: at least 60% of the maximum possible score of Oceanic Boundlessness
Description: The occurrence of a “peak psychedelic experience” in a patient can be identified through achievement of at least 60% of the maximum possible score in each of the four subscales (mystical, positive mood, transcendence of time and space, and ineffability) of the 30-item revised Mystical Experience Questionnaire (MEQ30) (as described in Barrett F S, J Psychopharmacol. 2015; 29(11):1182-90; Score items shown in Example 4).
The occurrence of a “peak psychedelic experience” in a patient can also be identified through achievement of at least 60% of the maximum possible score of the Oceanic Boundlessness (OBN) dimension of the Altered States of Consciousness (ASC) questionnaire (as described in Roseman L et al., Front Pharmacol. 2018; 8:974).
The occurrence of a “peak psychedelic experience” in a patient can also be identified through achievement of a score of at least 75 in the Peak Psychedelic Experience Questionnaire (PPEQ) Total Score, which averages answers scored by the patient from 0 to 100 for the following three questions: 1. How intense was the experience; 2. To what extent did you lose control; 3. How profound (i.e. deep and significant) was the experience?
A clinical trial was performed in which 5-MeO-DMT free base (purity not less than 99%) was administered to patients with treatment-resistant major depressive disorder (TRD). The objectives of the study were to assess the safety and tolerability, the dose-related psychedelic effects and the effects on various measures of depression of single-day dosing of 5-MeO-DMT. The trial was reviewed and approved by the relevant national competent authority and local medical ethics committee. Patients recruited into the trial had to meet the Diagnostic and Statistical Manual of Mental Disorders-Fifth Edition (DSM-5) diagnostic criteria for single-episode or recurrent major depressive disorder and had to be treatment-resistant, both aspects as evaluated by a psychiatrist or registered psychologist. Patients who were using any psychoactive medication or substance (such as anti-depressive medication) had to discontinue such medication or substance and had to observe a wash-out period before the 5-MeO-DMT administration. On the administration day, a single dose of 12 mg 5-MeO-DMT was administered to the patients via a single inhalation as described in Example 1A. Patients were closely monitored for 3.5 hours after administration, with additional follow-up visits 1 day and 7 days after dosing. Various safety related measures (e.g., adverse event reporting, safety laboratory analyses, vital signs, electrocardiogram (ECG), Clinician Administered Dissociative States Scale (CADSS), Psychomotor Vigilance Test (PVT), Digit Symbol Substitution Test (DSST)), measures of the intensity of the psychedelic effects (e.g., Peak Psychedelic Experience Questionnaire (PPEQ), Altered States of Consciousness (ASC) Questionnaire, Mystical Experience Questionnaire (MEQ30), subjective description of the psychedelic experience), measures of depression severity (Montgomery-Åsberg Depression Rating Scale (MADRS), Patient's Global Impression of Severity scale (PGI-S), Patient's Global Impression of Improvement scale (PGI-I)), and additional psychological measures (e.g., Columbia-Suicide Severity Rating Scale (C-SSRS), Brief Psychiatric Rating Scale (BPRS)) were recorded at different time points. Psychological support via a psychologist and/or psychiatrist was available to the patients throughout the study, but no specific psychotherapy was applied, and no additional psychoactive medication was provided.
The score for each individual subscale is computed by calculating the average score (from the scale of 0 to 5) for the phenomena belonging to the subscale as listed below.
The MEQ30-total score is computed by taking the average response to all phenomena. […]

Compound: COc1ccc2[nH]cc(CCN(C)C)c2c1 [5-MeO-DMT, 5-methoxy-N,N-dimethyltryptamine]
- ASC Oceanic Boundlessness (0-2700) (Patient 1): 1696
- MEQ30 Ineffability (0 to 5) (Patient 1): 4.7
- MEQ30 Mystical (0 to 5) (Patient 1): 3.5
- MEQ30 Positive Mood (0 to 5) (Patient 1): 4.5
- MEQ30 Total Score Average (0 to 5) (Patient 1): 3.8
- MEQ30 Transcendence Time/Space (0 to 5) (Patient 1): 3.7
- PPEQ Intensity (0-100) (Patient 1): 94
- PPEQ Loss of Control (0-100) (Patient 1): 45
- PPEQ Profoundness (0-100) (Patient 1): 87
- PPEQ Total Score (0-100) (Patient 1): 75.3
- PPEQ PPE achieved (Patient 1): Yes
- MEQ30 PPE achieved (Patient 1): Yes
- ASC PPE achieved (Patient 1): Yes
- ASC Oceanic Boundlessness (0-2700) (Patient 2): 1297
- MEQ30 Ineffability (0 to 5) (Patient 2): 3.3
- MEQ30 Mystical (0 to 5) (Patient 2): 3.1
- MEQ30 Positive Mood (0 to 5) (Patient 2): 4.0
- MEQ30 Total Score Average (0 to 5) (Patient 2): 3.4
- MEQ30 Transcendence Time/Space (0 to 5) (Patient 2): 3.5
- PPEQ Intensity (0-100) (Patient 2): 100
- PPEQ Loss of Control (0-100) (Patient 2): 58
- PPEQ Profoundness (0-100) (Patient 2): 80
- PPEQ Total Score (0-100) (Patient 2): 79.3
- PPEQ PPE achieved (Patient 2): Yes
- MEQ30 PPE achieved (Patient 2): Yes
- ASC PPE achieved (Patient 2): No
- duration of the psychedelic experience as judged by an external observer (patient 1, single dose of 12 mg via inhalation): 16 min
- duration of the psychedelic experience as judged by an external observer (patient 2, single dose of 12 mg via inhalation): 40 min
- first psychedelic symptoms after the inhalation (onset) (single dose of 12 mg via inhalation, both patients): within a few seconds

Source: patent US20240307350A1, “5-METHOXY-N,N-DIMETHYLTRYPTAMINE (5-MEO-DMT) FOR TREATING DEPRESSION” (GH RESEARCH IRELAND LIMITED, priority 2019, published 2024)
